Results reported in US20250270191A1, “QUINOLONE BCL6 BIFUNCTIONAL DEGRADERS” (Treeline Biosciences, Inc., priority 2022, published 2025).

Each molecule was assayed against T1, Human BCL6 protein (N-terminal HiBiT tagged BCL6 in HT1080 cells) (Homo sapiens, UniProt P41182+Q96SW2) (assay: HiBiT based BCL6 degradation assay). Conditions: HT1080 cells expressing N-terminal HiBiT tagged BCL6; 5 hours incubation; BCL6 degradation normalized with DMSO control.
T1 construct: Human BCL6 protein coding open reading frame; expressed in transfected cells; host or cells: HT1080 (ATCC CCL-121), stably transduced with lentivirus pLV-UBC-N-HiBiT-BCL6-PGK-puro
Type: cell-based
Source text: Human BCL6 protein coding open reading frame fused with N-terminal HiBiT coding sequence was synthesized from Integrated DNA Technologies (IDT). Next, the N-HiBiT-BCL6 sequence was cloned into pLV-UBC-PGK-Puro, a lentivirus plasmid purchased from Vectorbuilder, to generate pLV-UBC-N-HiBiT-BCL6-PGK-puro. Lentiviral particles were generated from Lenti-X™ 293T cells (Clontech) by co-transfection of pLV-UBC-N-HiBiT-BCL6-PGK-puro plasmids and lentiviral packaging plasmid mix (Cellecta). HT1080 [HT1080] (ATCC CCL-121) cells were infected with the lentivirus, and HT1080 cells stably integrated with the lentiviral vectors were established by incubation with 1 μg/mL puromycin (Thermofisher).
HT1080 cells expressing N-terminal HiBiT tagged BCL6 were dispensed into a 384-well plate pre-spotted with compounds at varying concentrations. Five thousand cells were seeded into each well in 40 μL of RPMI 1640 media plus 10% Fetal Bovine Serum (10082-147, Thermofisher). After 5 hours of incubation at 37° C. with 5% CO2, 30 μL of the NANO-GLO® HiBiT Lytic Detection System working solution (Promega) was added to each well and incubated at room temperature for 15 min. After incubation, luminescence was read on a PHERAstar FSX Plate Reader (BMG). BCL6 degradation at each indicated concentration was normalized with DMSO control. The BCL6 degradation curves were plotted using a four-parameter logistic model.

Compound	Ymin (5 hr)
CNC(=O)COc1cc2cc(Nc3nc(N4CCC[C@@H](Nc5ccc6c(C7CCC(=O)NC7=O)nn(C)c6c5)C4)ncc3Cl)ccc2n(C)c1=O (stereo partly drawn) [Compound 280b, 2-((6-((5-chloro-2-((3R)-3-((3-(2,6-dioxopiperidin-3-yl)-1-methyl-1H-indazol-6-yl)amino)piperidin-1-yl)pyrimidin-4-yl)amino)-1-methyl-2-oxo-1,2-dihydroquinolin-3-yl)oxy)-N-methylacetamide]	+ (Ymin > 70%)
CNC(=O)COc1cc2cc(Nc3nc(N4CCC(OC5CCN(c6ccc7c(C8CCC(=O)NC8=O)nn(C)c7c6)CC5)CC4)ncc3Cl)ccc2n(C)c1=O (stereo not shown) [Compound 287, 2-((6-((5-chloro-2-(4-((1-(3-(2,6-dioxopiperidin-3-yl)-1-methyl-1H-indazol-6-yl)piperidin-4-yl)oxy)piperidin-1-yl)pyrimidin-4-yl)amino)-1-methyl-2-oxo-1,2-dihydroquinolin-3-yl)oxy)-N-methylacetamide]	+++ (25% < Ymin ≤ 50%)
CNC(=O)COc1cc2cc(Nc3nc(N4CCC(CNC(=O)c5cccc(C6CCC(=O)NC6=O)c5)CC4)ncc3Cl)ccc2n(C)c1=O (stereo not shown) [Compound 105, N-((1-(5-chloro-4-((1-methyl-3-(2-(methylamino)-2-oxoethoxy)-2-oxo-1,2-dihydroquinolin-6-yl)amino)pyrimidin-2-yl)piperidin-4-yl)methyl)-3-(2,6-dioxopiperidin-3-yl)benzamide]	++ (50% < Ymin ≤ 70%)
CNC(=O)COc1cc2cc(Nc3nc(NC[C@H]4CC[C@@H](Nc5cccc(C6CCC(=O)NC6=O)c5)CC4)ncc3Cl)ccc2n(C)c1=O (stereo partly shown) [Compound 262a, 2-((6-((5-chloro-2-((((1s,4s)-4-((3-(2,6-dioxopiperidin-3-yl)phenyl)amino)cyclohexyl)methyl)amino)pyrimidin-4-yl)amino)-1-methyl-2-oxo-1,2-dihydroquinolin-3-yl)oxy)-N-methylacetamide]	++ (50% < Ymin ≤ 70%)
CNC(=O)COc1cc2cc(Nc3nc(N4CCN(C5CN(c6cccc7c(C8CCC(=O)NC8=O)nn(C)c67)C5)CC4)ncc3Cl)ccc2n(C)c1=O (stereo not shown) [Compound 283, 2-((6-((5-chloro-2-(4-(1-(3-(2,6-dioxopiperidin-3-yl)-1-methyl-1H-indazol-7-yl)azetidin-3-yl)piperazin-1-yl)pyrimidin-4-yl)amino)-1-methyl-2-oxo-1,2-dihydroquinolin-3-yl)oxy)-N-methylacetamide]	+++ (25% < Ymin ≤ 50%)
CNC(=O)COc1cc2cc(Nc3nc(N4CCC(CCNc5ccc(C6CCC(=O)NC6=O)cc5)CC4)ncc3Cl)ccc2n(C)c1=O (stereo not shown) [Compound 284, 2-((6-((5-chloro-2-(4-(2-((4-(2,6-dioxopiperidin-3-yl)phenyl)amino)ethyl)piperidin-1-yl)pyrimidin-4-yl)amino)-1-methyl-2-oxo-1,2-dihydroquinolin-3-yl)oxy)-N-methylacetamide]	++ (50% < Ymin ≤ 70%)
CNC(=O)COc1cc2cc(Nc3nc(NC[C@H]4CC[C@@H](Nc5ccc(C6CCC(=O)NC6=O)cc5)CC4)ncc3Cl)ccc2n(C)c1=O (stereo partly shown) [Compound 277b, 2-((6-((5-chloro-2-((((1s,4s)-4-((4-(2,6-dioxopiperidin-3-yl)phenyl)amino)cyclohexyl)methyl)amino)pyrimidin-4-yl)amino)-1-methyl-2-oxo-1,2-dihydroquinolin-3-yl)oxy)-N-methylacetamide]	++ (50% < Ymin ≤ 70%)
CNC(=O)COc1cc2cc(Nc3nc(N4CCC[C@H](CNc5cccc(C6CCC(=O)NC6=O)c5)C4)ncc3Cl)ccc2n(C)c1=O (stereo partly drawn) [Compound 275a, 2-((6-((5-chloro-2-((3R)-3-(((3-(2,6-dioxopiperidin-3-yl)phenyl)amino)methyl)piperidin-1-yl)pyrimidin-4-yl)amino)-1-methyl-2-oxo-1,2-dihydroquinolin-3-yl)oxy)-N-methylacetamide]	+ (Ymin > 70%)
CNC(=O)COc1cc2cc(Nc3nc(N4CCC[C@H](CCNc5cccc6c(C7CCC(=O)NC7=O)nn(C)c56)C4)ncc3Cl)ccc2n(C)c1=O (single isomer, unassigned) [Compound 294b]	++ (50% < Ymin ≤ 70%)
CNC(=O)COc1cc2cc(Nc3nc(N4CCC[C@@H](CCNc5ccc6c(C7CCC(=O)NC7=O)nn(C)c6c5)C4)ncc3Cl)ccc2n(C)c1=O (single isomer, unassigned) [Compound 290b]	+++ (25% < Ymin ≤ 50%)
CNC(=O)COc1cc2cc(Nc3nc(N4CCC[C@@H](CNc5cccc6c(C7CCC(=O)NC7=O)nn(C)c56)C4)ncc3Cl)ccc2n(C)c1=O (stereo partly drawn) [Compound 266a, 2-((6-((5-chloro-2-((3S)-3-(((3-(2,6-dioxopiperidin-3-yl)-1-methyl-1H-indazol-7-yl)amino)methyl)piperidin-1-yl)pyrimidin-4-yl)amino)-1-methyl-2-oxo-1,2-dihydroquinolin-3-yl)oxy)-N-methylacetamide]	++ (50% < Ymin ≤ 70%)
CNC(=O)COc1cc2cc(Nc3nc(N4CCC[C@H](CNc5cccc6c(C7CCC(=O)NC7=O)nn(C)c56)C4)ncc3Cl)ccc2n(C)c1=O (stereo partly drawn) [Compound 266b, 2-((6-((5-chloro-2-((3R)-3-(((3-(2,6-dioxopiperidin-3-yl)-1-methyl-1H-indazol-7-yl)amino)methyl)piperidin-1-yl)pyrimidin-4-yl)amino)-1-methyl-2-oxo-1,2-dihydroquinolin-3-yl)oxy)-N-methylacetamide]	++ (50% < Ymin ≤ 70%)

More lines, now with the values ahead:

Ymin (5 hr)	Compound
++++ (Ymin ≤ 25%)	CNC(=O)COc1cc2cc(Nc3nc(N4CCN(CC5CCN(c6cccc7c(C8CCC(=O)NC8=O)nn(C)c67)CC5)[C@H](C)C4)ncc3Cl)ccc2n(C)c1=O (stereo partly drawn) [Compound 308a, 2-((6-((5-chloro-2-((3R)-4-((1-(3-(2,6-dioxopiperidin-3-yl)-1-methyl-1H-indazol-7-yl)piperidin-4-yl)methyl)-3-methylpiperazin-1-yl)pyrimidin-4-yl)amino)-1-methyl-2-oxo-1,2-dihydroquinolin-3-yl)oxy)-N-methylacetamide]
++ (50% < Ymin ≤ 70%)	CNC(=O)COc1cc2cc(Nc3nc(N4CCCC5(CCCN(c6ccc7c(C8CCC(=O)NC8=O)nn(C)c7c6)C5)C4)ncc3Cl)ccc2n(C)c1=O (stereo not shown) [Compound 335, 2-((6-((5-chloro-2-(8-(3-(2,6-dioxopiperidin-3-yl)-1-methyl-1H-indazol-6-yl)-2,8-diazaspiro[5.5]undecan-2-yl)pyrimidin-4-yl)amino)-1-methyl-2-oxo-1,2-dihydroquinolin-3-yl)oxy)-N-methylacetamide]
+ (Ymin > 70%)	CNC(=O)COc1cc2cc(Nc3nc(N4CCC[C@H]4CNc4cccc5c(C6CCC(=O)NC6=O)nn(C)c45)ncc3Cl)ccc2n(C)c1=O (stereo partly drawn) [Compound 300b, 2-((6-((5-chloro-2-((2S)-2-(((3-(2,6-dioxopiperidin-3-yl)-1-methyl-1H-indazol-7-yl)amino)methyl)pyrrolidin-1-yl)pyrimidin-4-yl)amino)-1-methyl-2-oxo-1,2-dihydroquinolin-3-yl)oxy)-N-methylacetamide]
++++ (Ymin ≤ 25%)	CNC(=O)COc1cc2cc(Nc3nc(N4C[C@@H](C)N(CC5CCN(c6cccc7c(C8CCC(=O)NC8=O)nn(C)c67)CC5)[C@@H](C)C4)ncc3Cl)ccc2n(C)c1=O (stereo partly drawn) [Compound 336a, 2-((6-((5-chloro-2-((3S,5R)-4-((1-(3-(2,6-dioxopiperidin-3-yl)-1-methyl-1H-indazol-7-yl)piperidin-4-yl)methyl)-3,5-dimethylpiperazin-1-yl)pyrimidin-4-yl)amino)-1-methyl-2-oxo-1,2-dihydroquinolin-3-yl)oxy)-N-methylacetamide]
+++ (25% < Ymin ≤ 50%)	CNC(=O)COc1cc2cc(Nc3nc(N4CCC5CN(c6cccc7c(C8CCC(=O)NC8=O)nn(C)c67)CC5C4)ncc3Cl)ccc2n(C)c1=O (stereo not shown) [Compound 326, 2-((6-((5-chloro-2-(2-(3-(2,6-dioxopiperidin-3-yl)-1-methyl-1H-indazol-7-yl)octahydro-5H-pyrrolo[3,4-c]pyridin-5-yl)pyrimidin-4-yl)amino)-1-methyl-2-oxo-1,2-dihydroquinolin-3-yl)oxy)-N-methylacetamide]
++++ (Ymin ≤ 25%)	CNC(=O)COc1cc2cc(Nc3nc(N4CCN([C@@H](C)C5CCN(c6cccc7c(C8CCC(=O)NC8=O)nn(C)c67)CC5)CC4)ncc3Cl)ccc2n(C)c1=O (single isomer, unassigned) [Compound 307a]
+++ (25% < Ymin ≤ 50%)	CNC(=O)COc1cc2cc(Nc3nc(N4CCC(CCCOc5ccc6c(C7CCC(=O)NC7=O)nn(C)c6c5)CC4)ncc3Cl)ccc2n(C)c1=O (stereo not shown) [Compound 296, 2-((6-((5-chloro-2-(4-(3-((3-(2,6-dioxopiperidin-3-yl)-1-methyl-1H-indazol-6-yl)oxy)propyl)piperidin-1-yl)pyrimidin-4-yl)amino)-1-methyl-2-oxo-1,2-dihydroquinolin-3-yl)oxy)-N-methylacetamide]
